In brackets after ≈: the same amount, converted by molar mass.
Assays:
Type in all cases: physicochemical
[1] = Solid state stability evaluation (XRPD, PLM, HPLC purity after storage); details: for HPLC purity decrease after storage / Form change after storage (XRPD): 30° C./65% RH and 40° C./75% RH, open and closed; for Form change after storage (XRPD): up to 4 weeks; for Purity (Area %): HPLC; for Form Change: XRPD
Method: Agilent 1260 HPLC with VWD detector was utilized and detailed chromatographic conditions for purity analysis are listed ill Table 1-4.
The solid state stability of Compound I was evaluated under conditions of 30° C./65% RH (open dish and closed container) and 40° C./75% RH (open dish and closed container) for 4 weeks. The detailed procedures utilized for stability evaluation are listed: 1) Weighed about 10 mg of Compound I starting material into 3-mL glass vials; 2) For the open dish conditions, covered the vials with Parafilm® and poked 6 holes. For the closed conditions, sealed the vials with caps and kept the vials in the corresponding conditions, respectively; For the condition of 40° C./75% RH, placed the vials in the stability chamber of 40° C./75% RH; For the condition of 30° C./65% RH, placed the vials in the airtight atmosphere generated by saturated aqueous potassium iodide solution in 30° C. bio-chemical; 4) Samples taken for XRPD, PLM, and HPLC purity after 3 days, 1 week, 2 weeks and 4 weeks.
Solid state stability evaluation of Compound I Form I starting material was performed under conditions of 30° C./65% RH (closed and open) and 40° C./75% RH (closed and open). X-ray powder diffraction (XRPD), polarizing microscope (PLM) and HPLC purity were characterized at 4 sampling points (3 days, 1 week, 2 weeks, 4 weeks).
For the single crystal structure determination, 83 single crystal growth experiments were performed by different methods including slow evaporation, liquid vapor diffusion, slow cooling, heating-cooling and solvent-thermal synthesis. The stability evaluation experiments in 40° C./75% RH condition were performed using stability chamber, while the 30° C./65% RH condition was set up by saturated aqueous potassium iodide solution in 30° C. bio-chemical incubator.

[2] = Dynamic vapor sorption (DVS)
Method: DVS was measured via a SMS (Surface Measurement Systems) DVS Intrinsic. The relative humidity at 25° C. were calibrated against deliquescence point of LiCl, Mg(NO3)2 and KCl.
Compound I starting material was the delivered sample. The starting material was characterized by XRPD, thermo-gravimetric analysis (TGA), differential scanning calorimetry (DSC), PLM and dynamic vapor sorption (DVS).

[3] = Stability / interconversion of crystal forms (XRPD)
Method: Compound I was subjected to various crystallization conditions, including solid vapor diffusion, anti-solvent addition, liquid vapor diffusion, slow cooling, slurry conversion at various temperatures, temperature cycling, and slow evaporation. Crystalline forms of Compound I were analyzed by X-ray powder diffraction (XRPD), differential scanning calorimetry (DSC) and thermogravimetric analysis (TGA), while metastable forms were analyzed by XRPD. XRPD was performed with a Panalytical X'Pert3 Powder XRPD with a Si zero-background holder. The 2θ position was calibrated against a Panalytical Si reference standard disc.
Forms II and III only existed in the wet state and no solid was isolated for thermal analyses. Form V solids were obtained, however, Form V changed to Form I at around 50° C. upon drying in a vacuum oven. A summary of isolated forms and conditions is in Table 1-5 and Table 1-6.

[4] = Approximate solubility in single solvents at RT; details: thermodynamic from solid, room temperature
Method: Approximate solubility of Compound I was determined in 20 single solvents at RT. Approximately 2 mg of powder sample was added into a 3-mL glass vial. Corresponding solvents were added stepwise (50 μL→100 μL→300 μL→1000 μL) into each vial until powder solids were completely dissolved visually or a total volume of 1 mL solvent was added. Approximate solubility values were calculated based on sample mass, solvent volume, and experimental observation. Results summarized in Table 3-1 were used to guide subsequent solvent selection in the design of polymorph screening experiments.

[5] = 30° C./65% RH, closed container, 1 week
[6] = 30° C./65% RH, closed container, 2 weeks
[7] = 30° C./65% RH, closed container, 4 weeks
[8] = 30° C./65% RH, closed container, 3 days
[9] = 30° C./65% RH, open dish, 1 week
[10] = 30° C./65% RH, open dish, 2 weeks
[11] = 30° C./65% RH, open dish, 4 weeks
[12] = 30° C./65% RH, open dish, 3 days
[13] = 40° C./75% RH, closed container, 1 week
[14] = 40° C./75% RH, closed container, 2 weeks
[15] = 40° C./75% RH, closed container, 4 weeks
[16] = 40° C./75% RH, closed container, 3 days
[17] = 40° C./75% RH, open dish, 1 week
[18] = 40° C./75% RH, open dish, 2 weeks
[19] = 40° C./75% RH, open dish, 4 weeks
[20] = 40° C./75% RH, open dish, 3 days

OCCOCCOCCOCCOc1ccc(-c2nc3ccccc3s2)cc1 [Compound I Form I, 2-(2-(2-(2-(4-(benzo[d]thiazol-2-yl)phenoxy)ethoxy)ethoxy)ethoxy)ethan-1-ol]
HPLC purity decrease after storage ([1]; 4 weeks): No form change and significant HPLC purity decrease were observed | Form change after storage (XRPD) [1]: No form change | Purity/Initial (%) [1, 5]: 100.0% | Purity (Area %) [1, 5]: 99.66 Area % | Form Change [1, 5]: No | Purity/Initial (%) [1, 6]: 100.0% | Purity (Area %) [1, 6]: 99.64 Area % | Form Change [1, 6]: No | Purity/Initial (%) [1, 7]: 100.0% | Purity (Area %) [1, 7]: 99.66 Area % | Form Change [1, 7]: No | Purity/Initial (%) [1, 8]: 100.0% | Purity (Area %) [1, 8]: 99.68 Area % | Form Change [1, 8]: No | Purity/Initial (%) [1, 9]: 100.0% | Purity (Area %) [1, 9]: 99.66 Area % | Form Change [1, 9]: No | Purity/Initial (%) [1, 10]: 100.0% | Purity (Area %) [1, 10]: 99.63 Area % | Form Change [1, 10]: No | Purity/Initial (%) [1, 11]: 100.0% | Purity (Area %) [1, 11]: 99.66 Area % | Form Change [1, 11]: No | Purity/Initial (%) [1, 12]: 100.0% | Purity (Area %) [1, 12]: 99.69 Area % | Form Change [1, 12]: No | Purity/Initial (%) [1, 13]: 100.0% | Purity (Area %) [1, 13]: 99.66 Area % | Form Change [1, 13]: No | Purity/Initial (%) [1, 14]: 99.8% | Purity (Area %) [1, 14]: 99.45 Area % | Form Change [1, 14]: No | Purity/Initial (%) [1, 15]: 100.0% | Purity (Area %) [1, 15]: 99.65 Area % | Form Change [1, 15]: No | Purity/Initial (%) [1, 16]: 100.1% | Purity (Area %) [1, 16]: 99.76 Area % | Form Change [1, 16]: No | Purity/Initial (%) [1, 17]: 100.0% | Purity (Area %) [1, 17]: 99.66 Area % | Form Change [1, 17]: No | Purity/Initial (%) [1, 18]: 100.0% | Purity (Area %) [1, 18]: 99.63 Area % | Form Change [1, 18]: No | Purity/Initial (%) [1, 19]: 100.0% | Purity (Area %) [1, 19]: 99.65 Area % | Form Change [1, 19]: No | Purity/Initial (%) [1, 20]: 99.9% | Purity (Area %) [1, 20]: 99.61 Area % | Form Change [1, 20]: No | Form change after DVS test (XRPD) ([2]; 25° C., 0% RH-95% RH-0% RH): No form change was observed | Water uptake (DVS) ([2]; 25° C./80% RH): 0.64% | Water uptake (DVS) ([2]; 25° C./95% RH): 21.43%

OCCOCCOCCOCCOc1ccc(-c2nc3ccccc3s2)cc1 [Compound I Form II, 2-(2-(2-(2-(4-(benzo[d]thiazol-2-yl)phenoxy)ethoxy)ethoxy)ethoxy)ethan-1-ol]
Stability of crystal form (conversion on storage, air exposure or drying) ([3]; listed as Form II): changed to a mixture of Form II and C or a mixture of Form III and Form V upon storage

OCCOCCOCCOCCOc1ccc(-c2nc3ccccc3s2)cc1 [Compound I Form III, 2-(2-(2-(2-(4-(benzo[d]thiazol-2-yl)phenoxy)ethoxy)ethoxy)ethoxy)ethan-1-ol]
Stability of crystal form (conversion on storage, air exposure or drying) ([3]; listed as Form III): quickly converted to Form I upon exposure to open air

OCCOCCOCCOCCOc1ccc(-c2nc3ccccc3s2)cc1 [Compound I Form V, 2-(2-(2-(2-(4-(benzo[d]thiazol-2-yl)phenoxy)ethoxy)ethoxy)ethoxy)ethan-1-ol]
Stability of crystal form (conversion on storage, air exposure or drying) ([3]; listed as Form V): converted to Form I upon vacuum drying at ˜50 °C

OCCOCCOCCOCCOc1ccc(-c2nc3ccccc3s2)cc1 [Compound I, 2-(2-(2-(2-(4-(benzo[d]thiazol-2-yl)phenoxy)ethoxy)ethoxy)ethoxy)ethan-1-ol]
HPLC purity decrease after storage ([1]; 4 weeks): no significant HPLC purity decrease was observed | Form change after storage (XRPD) [1]: no form change was observed | solubility ([4]; organic solvent or mixture, 1,4-dioxane): > 32 mg/mL | solubility ([4]; organic solvent or mixture, 2-MeTHF): 20 to 40 mg/mL (≈ 49.6 to 99.1 mM) | solubility ([4]; organic solvent or mixture, Acetone): 6 to 18 mg/mL (≈ 14.9 to 44.6 mM) | solubility ([4]; organic solvent or mixture, Acetonitrile): 8 to 24 mg/mL (≈ 19.8 to 59.5 mM) | solubility ([4]; organic solvent or mixture, CPME): < 2.6 mg/mL | solubility ([4]; organic solvent or mixture, DCM): > 38 mg/mL | solubility ([4]; organic solvent or mixture, DMF): > 44 mg/mL | solubility ([4]; organic solvent or mixture, DMSO): 18 to 36 mg/mL (≈ 44.6 to 89.2 mM) | solubility ([4]; organic solvent or mixture, EtOAc): 20 to 40 mg/mL (≈ 49.6 to 99.1 mM) | solubility ([4]; organic solvent or mixture, EtOH): 7.3 to 22 mg/mL (≈ 18.1 to 54.5 mM) | solubility ([4]; organic solvent or mixture, Heptane): < 2.2 mg/mL | solubility ([4]; organic solvent or mixture, IPA): < 1.9 mg/mL | solubility ([4]; organic solvent or mixture, IPAc): 1.7 to 5.7 mg/mL (≈ 4.21 to 14.1 mM) | solubility ([4]; organic solvent or mixture, MEK): 18 to 36 mg/mL (≈ 44.6 to 89.2 mM) | solubility ([4]; organic solvent or mixture, MIBK): 2.5 to 8.3 mg/mL (≈ 6.2 to 20.6 mM) | solubility ([4]; organic solvent or mixture, MTBE): < 2 mg/mL | solubility ([4]; organic solvent or mixture, MeOH): 21 to 42 mg/mL (≈ 52 to 104 mM) | solubility ([4]; organic solvent or mixture, THF): > 36 mg/mL | solubility ([4]; organic solvent or mixture, Toluene): 6 to 18 mg/mL (≈ 14.9 to 44.6 mM) | solubility ([4]; water, H2O): < 1.8 mg/mL

— patent US12486287B2, “Solid forms of a promoter of spinogenesis” (Spinogenix, Inc., priority 2019, dated 2025)
